# Laboratory results reported in a melting point compilation (Tetko et al.).
row,Structure (SMILES),melting point
1,O=C(O)c1cccnc1Oc1ccc2c(c1)OCO2,181 to 183 °C
2,CC(=O)NC(Cc1ccc2c(c1)OCO2)C(=O)O (stereo unspecified),92 °C
3,Cc1cnc(O)c(Br)c1,157 °C
4,Fc1ccc(C(=S)N2CCCCC2)cc1,77 °C
5,FC(F)(F)c1nc2c(Cl)c(Cl)ccc2[nH]1,214 °C
6,CC1C(c2ccccc2)=Cc2ccccc21 (stereo unspecified),58 °C
7,O=Cc1cccc2cccc(C(=O)O)c12,160 to 167 °C
8,Clc1nc2ccccc2[nH]1,200 °C
9,c1ccc(COc2cccc3[nH]ccc23)cc1,60 °C
10,NS(=O)(=O)c1ccc(F)c(C(F)(F)F)c1,162 °C
11,ClC(Cl)=C(c1ccc(Cl)cc1)c1ccc(Cl)cc1,89 °C
12,CCc1cccc(CC)c1N,3.5 °C
13,Cc1c(C(=O)c2c[nH]n(C)c2=O)ccc(S(C)(=O)=O)c1C1=NOCC1,222 °C
14,O=C(c1ccc(Br)cc1)[C@H]1CCCC[C@H]1C(=O)O (relative stereo),171 to 175 °C
15,O=C1OC(=O)C23CC4=C(CC=CC4)CC12CC1=C(CC=CC1)C3 (stereo unspecified),220 to 247 °C
16,N=C(N)NC(N)=O,105 °C
17,O=Cc1cc(Cl)cc(Cl)c1O,96 °C
18,Cc1cc(C)c(N=C=O)c(C)c1,44.5 °C
19,CCOC(=O)CSc1nc(=O)[nH]c2c1CCCC2,192 to 193 °C
20,FC(F)(F)c1cc(Br)c2nc[nH]c2c1,218 to 220 °C
21,Nc1nnc(-c2ccc([N+](=O)[O-])o2)s1,280 °C
22,ON=C(Cc1ccccc1)C(Cc1ccccc1)=NO,193 °C

row,Structure (SMILES),melting point
1,CC(=O)OC(C)=O,-73 °C
2,CCCCCCCCCCCI,2 °C
3,Cn1nc(-c2cccs2)cc1C(=O)O,173 to 174 °C
4,Cc1ccc(C=C(Oc2cccc(C)c2)c2nc3ccccc3s2)cc1,137 to 139 °C
5,COc1cccc(CCC(=O)O)c1,45 °C
6,FC(F)(F)c1cc(-n2cccc2)cc(C(F)(F)F)c1,43 to 45 °C
7,O=[N+]([O-])c1ccc(O)cc1F,92 to 95 °C
8,COc1cc(O)c(C(C)=O)c(OC)c1,82 °C
9,O=C(O)c1cnc(Cl)c(Cl)c1,163 to 168 °C
10,CC(=O)Oc1c(I)cc(I)cc1C(=O)Nc1ccc(Cl)cc1,216 °C
11,N#Cc1ccc(Cl)c(Cl)c1,72 °C
12,O=C(O)C1(C(F)(F)F)CC1,88 °C
13,c1ccc2nn(C3CCCCC3)nc2c1,46.5 °C
14,O=[N+]([O-])c1cccc(-c2nnc3n2NC(/C=C/c2ccccc2)S3)c1 (stereo unspecified),190 to 192 °C
15,CCN(CCO)CCCC(C)Nc1ccnc2cc(Cl)ccc12 (stereo unspecified),90 °C
16,OCC1OC(n2cnc3cncnc32)C(O)C1O (stereo unspecified),181 °C
17,NS(=O)(=O)c1cc2c(cc1Cl)NC(Cc1ccc(F)cc1)NS2(=O)=O (stereo unspecified),239 °C
18,Cc1cc(C)n2nc(N)c(Cc3ccc(F)cc3)c2n1,208 to 210 °C
19,O=C1CCC(c2ccc(NC(=O)C(Cl)Cl)cc2)=NN1,252 to 253 °C
20,CCOC(=O)CCCCCC(=O)O,10 °C
21,FC(F)(F)c1ccc2c(c1)NCCC2,32 °C
22,FCCl,-133 °C

row,Structure (SMILES),melting point
1,Cc1ccc(-c2csnn2)cc1,73 to 75 °C
2,O=C=Nc1cccc2ccccc12,4 °C
3,O=P1(N(CCCl)CCCl)NCCCO1 (stereo unspecified),51.5 °C
4,O=C(CBr)c1cccc(Br)c1,51 to 52 °C
5,Cc1cccc(N/N=C(/C#N)c2nc(-c3ccc(Cl)cc3)cs2)c1,157 °C
6,CCCCCCCCC(O)CCCCCCCC,61 °C
7,CC(/N=N/c1cc(Cl)cc(Cl)c1O)=C(\Cl)C(=O)OCCOCCOCCCl,71.5 °C
8,C1CC2CCC1C2,87.5 °C
9,CC=C(C)C(=O)O,64.5 °C
10,CC12CCC3c4ccc(OC(=O)Cc5ccc(N(CCCl)CCCl)cc5)cc4CCC3C1CCC2OC(=O)Cc1ccc(N(CCCl)CCCl)cc1 (stereo unspecified),52.5 °C
11,C=CCl,-154 °C
12,CCCCCCCCNC(=S)NN,47 to 49 °C
13,O=C1CCN(C(=O)c2ccccc2)CC1,56 to 59 °C
14,CC1Sc2ccc(Cl)cc2-c2nc(N)ncc21 (stereo unspecified),181 to 183 °C
15,CC1=CCC(=O)O1,18 °C
16,Nc1ccc(-c2ccc3nn(-c4ccccc4)nc3c2)cc1,224 to 225 °C
17,N#CC(=NO)c1ccccc1,129 °C
18,Cc1cc(C(F)(F)F)n2nc(N)c(/N=N/c3ccccc3)c2n1,201 to 203 °C
19,CCCCCCCCCCC(=O)c1ccccc1,28 to 30 °C
20,CCOc1ccc(C(=O)OCCN(CC)CC)cc1,173 °C
21,CCCCCCCCCCCCCCCCOCCCCCCCCCCCCCCCC,55 °C
22,O=S(=O)(O)CCN1CCN(CCS(=O)(=O)O)CC1,300 °C
